Literature values in US20230233583A1, “USE OF PHYTOCANNABINOIDS FOR TREATING MULTIPLE MYELOMA” (priority 2020, published 2023).

Tested on: MM cells
Conditions: reported in literature (ref. 3); by itself or in synergy with bortezomib; cited from earlier work

C=C(C)[C@@H]1CCC(C)=C[C@H]1c1c(O)cc(CCCCC)cc1O [CBD, cannabidiol]
growth of MM cells, in words: strongly inhibited growth
